# Test results from patent US6969731B1, “Protease inhibitors that overcome drug resistance” (The University of Illinois, Board of Trustees, priority 1999, dated 2005).
# Values joined by “and” are separate entries in the source; they are usually repeats but may differ in a detail not shown here. Equal values may be shown once.
# Tests used:
# Assay type in all cases: biochemical
# [1] = tested on: HIV-1 protease resistant mutant M46I; details: Ki,mut M46I / Ki wild-type
# [2] = molecular target: T1, HIV-1 protease resistant mutant M46I (Human immunodeficiency virus type 1 group M subtype B, UniProt P04585, M534I); details: M46I mutant; with standard error
# T1 construct: The active HIVPr is a homodimer of 99-residue monomers; made in house
# [3] = molecular target: T2, HIV-1 protease resistant mutant I84V (Human immunodeficiency virus type 1 group M subtype B, UniProt P04585, I572V); details: I84V mutant; with standard error
# T2 construct: The active HIVPr is a homodimer of 99-residue monomers; made in house
# [4] = tested on: HIV-1 protease resistant mutant I84V; details: Ki,mut I84V / Ki wild-type
# wild type HIV-1 protease = molecular target: T3, wild type HIV-1 protease (Human immunodeficiency virus type 1 group M subtype B, UniProt P04585); experiment: Ki determination, wild-type HIV-1 protease; details: W.T. HIV-1 protease; with standard error
# T3 construct: The active HIVPr is a homodimer of 99-residue monomers; made in house; host or cells: E. coli
# Text: (§1) The wild-type HIV-1 Pr was produced as recombinant enzyme in E. coli as described by Ido et al. ( 1991) J. Biol. Chem. 266:24359-24366.
# [5] = tested on: HIV-1 protease resistant mutant L90M; details: Ki,mut L90M / Ki wild-type
# [6] = molecular target: T4, HIV-1 protease resistant mutant L90M (Human immunodeficiency virus type 1 group M subtype B, UniProt P04585, L578M); details: L90M mutant; with standard error
# T4 construct: The active HIVPr is a homodimer of 99-residue monomers; made in house
# [7] = tested on: HIV-1 protease resistant mutant G48V; details: Ki,mut G48V / Ki wild-type
# [8] = molecular target: T5, HIV-1 protease resistant mutant G48V (Human immunodeficiency virus type 1 group M subtype B, UniProt P04585, G536V); details: G48V mutant; with standard error
# T5 construct: The active HIVPr is a homodimer of 99-residue monomers; made in house
# [9] = tested on: HIV-1 protease resistant mutant L10I; details: Ki,mut L10I / Ki wild-type
# [10] = molecular target: T6, HIV-1 protease resistant mutant L10I (Human immunodeficiency virus type 1 group M subtype B, UniProt P04585, L498I); details: L10I mutant; with standard error
# T6 construct: The active HIVPr is a homodimer of 99-residue monomers; made in house
# [11] = molecular target: T7, HIV-1 protease resistant mutant K20R (Human immunodeficiency virus type 1 group M subtype B, UniProt P04585, K508R); details: K20R mutant; with standard error
# T7 construct: The active HIVPr is a homodimer of 99-residue monomers; made in house
# [12] = tested on: HIV-1 protease resistant mutant K20R; details: Ki,mut K20R / Ki wild-type
# [13] = tested on: HIV-1 protease resistant mutant V82A; details: Ki,mut V82A / Ki wild-type
# [14] = molecular target: T8, HIV-1 protease resistant mutant V82A (Human immunodeficiency virus type 1 group M subtype B, UniProt P04585, V570A); details: V82A mutant; with standard error
# T8 construct: The active HIVPr is a homodimer of 99-residue monomers; made in house
# [15] = tested on: HIV-1 protease resistant mutant I15V; details: Ki,mut I15V / Ki wild-type
# [16] = molecular target: T9, HIV-1 protease resistant mutant I15V (Human immunodeficiency virus type 1 group M subtype B, UniProt P04585, I503V); details: I15V mutant; with standard error
# T9 construct: The active HIVPr is a homodimer of 99-residue monomers; made in house
# [17] = molecular target: T10, HIV-1 protease resistant mutant I93L (Human immunodeficiency virus type 1 group M subtype B, UniProt P04585, I581L); experiment: Ki determination, HIV-1 protease mutant I93L
# T10 construct: The active HIVPr is a homodimer of 99-residue monomers; made in house
# Text: as §1
# [18] = tested on: HIV-1 protease resistant mutant I64V; details: Ki,mut I64V / Ki wild-type
# [19] = molecular target: T11, HIV-1 protease resistant mutant I64V (Human immunodeficiency virus type 1 group M subtype B, UniProt P04585, I552V); details: I64V mutant; with standard error
# T11 construct: The active HIVPr is a homodimer of 99-residue monomers; made in house
smiles,measurement,setting,value
"CC(C)CN(CC(O)C(Cc1ccccc1)NC(=O)C(Cc1ccccc1)CC(O)C(Cc1ccccc1)NC(=O)OC1CCCO1)S(=O)(=O)c1cccc(O)c1 [UIC-98-056, (1′S,2R,2′R,3S,5′S)-3-[N-[2′-Benzyl-5′-[N-(2-tetrahydrofuranyloxycarbonyl]amino-4′-hydroxy-6′-phenyl-1′-oxo]hexyl]amino-2-hydroxy-1-[N-isobutylamino-N′[3-hydroxybenzene)sulfonamido]]-4-[phenylbutane]",fold of Ki increase from that of the wild-type,[1],0.5 fold
same,Ki,[2],3.16 ± 0.81 nM
same,Ki,[3],55.3 ± 0.46 nM
same,fold of Ki increase from that of the wild-type,[4],9 fold and 8.9 fold
same,Ki,wild type HIV-1 protease,6.2 ± 0.8 nM
same,fold of Ki increase from that of the wild-type,[5],0.3 fold
same,Ki,[6],2.1 ± 0.5 nM
same,fold of Ki increase from that of the wild-type,[7],1.4 fold
same,Ki,[8],8.7 ± 1.4 nM
same,fold of Ki increase from that of the wild-type,[9],0.2 fold
same,Ki,[10],1.03 ± 0.25 nM
same,Ki,[11],2.9 ± 0.74 nM
same,fold of Ki increase from that of the wild-type,[12],0.5 fold
same,fold of Ki increase from that of the wild-type,[13],1.0 fold
same,Ki,[14],6.23 ± 1.2 nM
same,fold of Ki increase from that of the wild-type,[15],0.2 fold
same,Ki,[16],1.22 ± 0.14 nM
same,Ki,"[17]; I93L mutant, with standard error",3.05 ± 0.64 nM
same,fold of Ki increase from that of the wild-type,"[17]; Ki,mut I93L / Ki wild-type",0.5 fold
same,fold of Ki increase from that of the wild-type,[18],1.0 fold
same,Ki,[19],6.24 ± 1.52 nM
